The results in this text go back to ChEMBL document CHEMBL5331077, “Combining pharmacophore models derived from DNA-encoded chemical libraries with structure-based exploration to predict Tankyrase 1 inhibitors” (Eur J Med Chem, 2023).

The inhibition is how much of the control response was suppressed. One may read the IC50 as the concentration that gives 50% inhibition.

For experiment [1], the target named is T1, Poly [ADP-ribose] polymerase tankyrase-1 (Homo sapiens) (UniProt O95271).
T1 sequence (whole entry): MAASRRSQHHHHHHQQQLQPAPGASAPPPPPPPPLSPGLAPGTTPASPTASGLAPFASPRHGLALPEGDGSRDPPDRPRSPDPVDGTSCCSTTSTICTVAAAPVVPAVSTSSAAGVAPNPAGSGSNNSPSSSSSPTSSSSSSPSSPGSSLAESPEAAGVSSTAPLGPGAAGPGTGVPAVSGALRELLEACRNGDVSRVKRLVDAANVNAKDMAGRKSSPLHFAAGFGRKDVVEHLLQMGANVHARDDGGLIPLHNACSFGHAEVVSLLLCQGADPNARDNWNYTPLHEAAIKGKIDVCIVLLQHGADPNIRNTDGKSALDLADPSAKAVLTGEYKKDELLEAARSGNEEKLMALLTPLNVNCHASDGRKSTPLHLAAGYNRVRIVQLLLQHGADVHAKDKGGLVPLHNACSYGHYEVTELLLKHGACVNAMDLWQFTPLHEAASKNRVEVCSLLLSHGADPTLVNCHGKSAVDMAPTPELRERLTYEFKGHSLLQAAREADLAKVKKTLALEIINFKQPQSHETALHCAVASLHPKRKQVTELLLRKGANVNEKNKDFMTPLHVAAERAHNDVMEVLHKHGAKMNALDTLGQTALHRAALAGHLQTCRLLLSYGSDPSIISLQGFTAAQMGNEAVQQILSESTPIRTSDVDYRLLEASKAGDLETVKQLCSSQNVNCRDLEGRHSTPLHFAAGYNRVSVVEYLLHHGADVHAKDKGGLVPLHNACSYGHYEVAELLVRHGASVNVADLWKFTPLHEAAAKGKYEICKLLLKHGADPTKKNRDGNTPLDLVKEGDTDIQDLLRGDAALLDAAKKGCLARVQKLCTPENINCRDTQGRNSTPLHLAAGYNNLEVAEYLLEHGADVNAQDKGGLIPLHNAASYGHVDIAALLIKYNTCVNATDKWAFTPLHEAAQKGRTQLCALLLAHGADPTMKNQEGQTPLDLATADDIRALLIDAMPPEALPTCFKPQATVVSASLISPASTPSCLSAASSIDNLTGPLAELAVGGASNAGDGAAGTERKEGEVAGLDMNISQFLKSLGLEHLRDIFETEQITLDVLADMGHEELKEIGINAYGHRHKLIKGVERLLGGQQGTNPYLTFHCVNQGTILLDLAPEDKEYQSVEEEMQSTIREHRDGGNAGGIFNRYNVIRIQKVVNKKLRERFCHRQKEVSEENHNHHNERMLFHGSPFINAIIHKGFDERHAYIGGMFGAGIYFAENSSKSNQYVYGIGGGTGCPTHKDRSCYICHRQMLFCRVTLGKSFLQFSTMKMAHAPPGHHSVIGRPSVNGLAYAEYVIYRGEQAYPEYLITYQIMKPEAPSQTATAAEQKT
As to the kind of experiment: Inhibition of TNKS1 (unknown origin) at 10 uM using biotinylated NAD as substrate preincubated for 30 mins followed by substrate addition and measured after 1 hr by BioTek synergy 2 microplate reader analysis relative to control. The following applies: time 90.0 min.

Experiment [2] addresses T2, Poly [ADP-ribose] polymerase tankyrase-1 (Homo sapiens, UniProt O95271).
T2 sequence (O95271 whole entry): T1 sequence (whole entry)
Briefly: Inhibition of TNKS1 (unknown origin) using biotinylated NAD as substrate preincubated for 30 mins followed by substrate addition and measured after 1 hr by BioTek synergy 2 microplate reader analysis.

The target in experiment [3] is T1, Poly [ADP-ribose] polymerase tankyrase-1 (Homo sapiens). Briefly: Inhibition of TNKS1 (unknown origin) at 100 nM using biotinylated NAD as substrate preincubated for 30 mins followed by substrate addition and measured after 1 hr by BioTek synergy 2 microplate reader analysis relative to control. The settings on record: time 90.0 min.
The target in experiment [4] is Poly [ADP-ribose] polymerase 2 (Homo sapiens) (UniProt Q9UGN5). As to the kind of experiment: Inhibition of human PARP2 at 50 nM relative to control.
Chain of Poly [ADP-ribose] polymerase 2 (Homo sapiens) (Q9UGN5 whole entry): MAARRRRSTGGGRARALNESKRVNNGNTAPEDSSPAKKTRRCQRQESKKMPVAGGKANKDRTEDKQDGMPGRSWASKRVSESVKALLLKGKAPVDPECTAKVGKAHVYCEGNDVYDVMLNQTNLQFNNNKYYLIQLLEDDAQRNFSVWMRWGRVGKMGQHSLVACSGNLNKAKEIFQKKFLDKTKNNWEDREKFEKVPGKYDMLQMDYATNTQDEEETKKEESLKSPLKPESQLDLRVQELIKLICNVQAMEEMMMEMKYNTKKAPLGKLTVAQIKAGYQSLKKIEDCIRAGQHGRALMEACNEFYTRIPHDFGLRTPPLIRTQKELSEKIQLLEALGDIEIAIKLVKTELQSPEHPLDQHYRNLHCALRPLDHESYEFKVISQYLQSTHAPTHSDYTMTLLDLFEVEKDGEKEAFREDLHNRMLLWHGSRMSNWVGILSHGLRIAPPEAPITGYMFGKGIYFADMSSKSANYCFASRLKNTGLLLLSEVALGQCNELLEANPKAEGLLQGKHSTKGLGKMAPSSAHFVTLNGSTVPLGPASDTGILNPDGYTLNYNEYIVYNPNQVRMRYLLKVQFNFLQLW
In experiment [5] the target is Poly [ADP-ribose] polymerase 1 (Homo sapiens) (UniProt P09874). Briefly: Inhibition of human PARP1 at 0.5 uM relative to control.
Chain of Poly [ADP-ribose] polymerase 1 (Homo sapiens) (P09874 whole entry): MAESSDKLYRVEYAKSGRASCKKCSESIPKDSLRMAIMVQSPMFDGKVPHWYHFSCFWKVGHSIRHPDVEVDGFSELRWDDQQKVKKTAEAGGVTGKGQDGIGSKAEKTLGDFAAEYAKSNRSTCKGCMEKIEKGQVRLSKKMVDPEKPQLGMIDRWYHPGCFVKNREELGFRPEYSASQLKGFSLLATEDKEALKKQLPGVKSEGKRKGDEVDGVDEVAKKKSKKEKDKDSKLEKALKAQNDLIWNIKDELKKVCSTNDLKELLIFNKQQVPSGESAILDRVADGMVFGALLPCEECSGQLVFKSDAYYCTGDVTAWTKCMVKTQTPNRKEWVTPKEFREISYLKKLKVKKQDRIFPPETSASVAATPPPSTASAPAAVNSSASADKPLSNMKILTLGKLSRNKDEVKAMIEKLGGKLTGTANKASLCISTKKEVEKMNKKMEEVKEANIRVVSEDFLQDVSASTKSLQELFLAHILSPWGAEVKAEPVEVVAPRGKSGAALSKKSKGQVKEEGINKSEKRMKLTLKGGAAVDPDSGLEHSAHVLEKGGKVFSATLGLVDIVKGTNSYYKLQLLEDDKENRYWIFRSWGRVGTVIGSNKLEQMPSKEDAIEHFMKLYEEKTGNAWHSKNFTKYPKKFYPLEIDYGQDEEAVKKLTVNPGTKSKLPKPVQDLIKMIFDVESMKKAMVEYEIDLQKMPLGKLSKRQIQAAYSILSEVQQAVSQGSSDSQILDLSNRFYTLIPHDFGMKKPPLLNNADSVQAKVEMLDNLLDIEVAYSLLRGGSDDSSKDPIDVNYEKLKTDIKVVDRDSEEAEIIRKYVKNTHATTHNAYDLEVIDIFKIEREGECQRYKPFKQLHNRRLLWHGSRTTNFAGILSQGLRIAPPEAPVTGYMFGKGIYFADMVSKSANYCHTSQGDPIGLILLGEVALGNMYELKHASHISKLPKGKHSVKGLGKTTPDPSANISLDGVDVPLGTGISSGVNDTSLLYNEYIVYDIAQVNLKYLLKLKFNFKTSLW
The target of experiment [6] is T3, Poly [ADP-ribose] polymerase tankyrase-2 (Homo sapiens) (UniProt Q9H2K2).
T3 sequence (whole entry): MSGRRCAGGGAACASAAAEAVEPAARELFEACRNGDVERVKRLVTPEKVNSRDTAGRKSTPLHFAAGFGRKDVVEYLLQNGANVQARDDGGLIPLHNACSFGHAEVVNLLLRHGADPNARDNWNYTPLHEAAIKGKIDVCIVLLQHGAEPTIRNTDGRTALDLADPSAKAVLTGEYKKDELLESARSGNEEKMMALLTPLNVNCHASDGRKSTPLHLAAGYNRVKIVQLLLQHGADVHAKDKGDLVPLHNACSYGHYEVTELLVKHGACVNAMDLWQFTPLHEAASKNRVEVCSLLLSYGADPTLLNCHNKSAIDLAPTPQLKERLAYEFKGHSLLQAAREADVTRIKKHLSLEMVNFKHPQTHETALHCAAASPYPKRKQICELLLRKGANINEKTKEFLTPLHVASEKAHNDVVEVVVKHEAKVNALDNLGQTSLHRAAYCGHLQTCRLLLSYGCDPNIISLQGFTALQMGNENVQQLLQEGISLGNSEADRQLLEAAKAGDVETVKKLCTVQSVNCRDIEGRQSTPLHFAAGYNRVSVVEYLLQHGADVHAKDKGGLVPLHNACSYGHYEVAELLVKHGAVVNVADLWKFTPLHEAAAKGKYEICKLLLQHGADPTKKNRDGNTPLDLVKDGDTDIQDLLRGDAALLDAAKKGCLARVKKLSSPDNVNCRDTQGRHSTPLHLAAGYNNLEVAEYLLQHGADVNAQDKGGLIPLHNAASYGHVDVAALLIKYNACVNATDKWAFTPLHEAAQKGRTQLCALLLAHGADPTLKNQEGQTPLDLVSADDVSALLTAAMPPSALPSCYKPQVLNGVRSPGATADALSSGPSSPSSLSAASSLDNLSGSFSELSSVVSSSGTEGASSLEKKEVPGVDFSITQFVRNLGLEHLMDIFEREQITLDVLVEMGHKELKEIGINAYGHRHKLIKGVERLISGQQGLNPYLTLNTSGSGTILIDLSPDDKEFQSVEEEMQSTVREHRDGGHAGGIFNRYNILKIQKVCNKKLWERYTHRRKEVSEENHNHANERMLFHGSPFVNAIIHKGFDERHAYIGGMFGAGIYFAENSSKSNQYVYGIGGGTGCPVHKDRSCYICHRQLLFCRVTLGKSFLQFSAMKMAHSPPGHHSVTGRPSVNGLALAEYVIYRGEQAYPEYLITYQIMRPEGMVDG
As to the kind of experiment: Inhibition of TNKS2 (unknown origin) at 0.5 uM relative to control.

In experiment [7] the target is T3, Poly [ADP-ribose] polymerase tankyrase-2 (Homo sapiens). As to the kind of experiment: Inhibition of TNKS2 (unknown origin) at 50 nM relative to control.
For experiment [8], the target named is Poly [ADP-ribose] polymerase 1 (Homo sapiens) (UniProt P09874). Briefly: Inhibition of human PARP1 at 50 nM relative to control.
Experiment [9] has as its target Poly [ADP-ribose] polymerase 2 (Homo sapiens) (UniProt Q9UGN5). Briefly: Inhibition of human PARP2 at 0.5 uM relative to control.

For `O=C(NCc1ccc(-c2ccc3c(c2)CCCO3)cc1)c1nc2ccccc2c(=O)[nH]1`, the inhibition in experiment [1] worked out at 74%.
`COc1ccc2c(c1)C(CC(=O)NCCNC(=O)CCn1c(=O)[nH]c(=O)c3ccccc31)CC2=O` (stereo not drawn): in experiment [2], the IC50 stood at 15 nM.
For `O=C(CCc1nc2ccccc2c(=O)[nH]1)Nc1ccc(-n2cnnn2)cc1`, the inhibition in [1] was found to be 67%.
Same read-out and setting: as for `O=C(Cc1n[nH]c(=O)c2ccccc12)Nc1ccc(Cc2nc3ccccc3s2)cc1`, the figure is 35%.
In the case of `COc1ccc(C(N)=O)cc1NC(=O)c1cccc(-c2cnc3[nH]c(=O)n(C)c3c2)c1`, the inhibition was 3% in experiment [3] and 97% in experiment [1].
As to `Cc1ccc2c(c1)NC(=O)C2CC(=O)NCCNC(=O)CCn1c(=O)[nH]c(=O)c2ccccc21` (stereo not drawn), in experiment [2], the IC50 was 75 nM.
Still for that read-out and setting: as for `CNC(=O)[C@H](CNC(=O)c1cccc(COc2ccccc2C(N)=O)c1)NC(=O)COc1cc(C)cc2oc(=O)c3c(c12)CCC3`, the figure is 33 nM.
For `O=C(NCCNC(=O)c1n[nH]c(=O)c2ccccc12)c1cccc(CN2C(=O)CNC2=O)c1`, the inhibition turned out to be 3% in experiment [4]; 47% in [5]; 93% in [6]; 49% in experiment [7]; 17% in experiment [8]; 53% in [9]. The half-maximal inhibitory concentration (IC50) in [2] worked out at 69 nM.
Consider `O=C(Cc1n[nH]c(=O)c2ccccc12)OCC(=O)N1CCN(c2ccccn2)CC1`, for which the inhibition in experiment [3] came out at 78%; in experiment [1], 100%. In addition, the IC50 in experiment [2] was found to be 22 nM.
For `CNC(=O)[C@H](CNC(=O)Cn1[nH]c(=O)c2ccccc2c1=O)NC(=O)c1cnc(C)cn1`, the IC50 in experiment [2] was 140 nM.
As to `O=C(CCn1c(=O)[nH]c(=O)c2ccccc21)NCCNC(=O)c1cnc2ccccc2c1`, the concentration for half-maximal inhibition (IC50) in [2] was 8.3 nM.
Take `O=C(Cn1cnc2ccccc2c1=O)N1CCC(c2nnc(-c3ccco3)s2)CC1`: the inhibition in [1] was 0%.
In the case of `CC(=O)N1CCC[C@H]1C(=O)NCCNC(=O)Cn1[nH]c(=O)c2ccccc2c1=O`, in experiment [2], the IC50 came out at 4900 nM.
`Cc1ccc(C)c(NC(=O)CSc2nnc(Cc3cc(=O)[nH]c(=O)[nH]3)n2-c2ccc(Cl)cc2)c1`: the inhibition came out at 0% in experiment [3] and 7% in experiment [1].
Regarding `CC(=O)N1CCC[C@H]1C(=O)NCCNC(=O)CCn1c(=O)[nH]c(=O)c2ccccc21`, the IC50 in experiment [2] came to 26000 nM.
For `Cc1cnc(C(=O)NCCNC(=O)Cn2[nH]c(=O)c3ccccc3c2=O)cn1`, the inhibition amounted to 0% in experiment [4]; 52% in experiment [5]; 92% in experiment [6]; 49% in [7]; 14% in experiment [8]; 52% in experiment [9]. Further, in [2], the IC50 was 47 nM.
Consider `O[C@H](c1ccccc1)c1cn(C2CCN(Cc3cnc4ccccc4c3)CC2)nn1`, for which the inhibition in experiment [1] was found to be 5%.
